Laboratory results from publication PMC6152131, “Pharmacokinetic Study of Biotransformation Products from an Anxiolytic Fraction of Tilia americana” (Molecules : A Journal of Synthetic Chemistry and Natural …, 2017).

Columns and labels:
[1] = Plasma concentration after a single oral dose of the anxiolytic fraction (HPLC); type: in vivo, ICR mice; details: mouse, plasma, ICR mice, n = 10
Protocol: Eleven groups of ten animals each were randomly formed. All animals were orally administered with 200 mg/kg of the active fraction. Animals were anaesthetized with ether, and blood samples were obtained from the retroorbital sinus with a heparinized capillary, each group was examined at different times (0, 5, 10, 15, 30, 60, 120, 240, 480, 720, and 1440 min) after the active fraction was administered. […] Then the plasma samples were frozen and lyophilized. The dry plasma was subsequently used to extract and measure the concentration of the flavonoids and biotransformation products.
(§1) Plasma dried pulverized samples were extracted with methanol (HPLC grade, Merck). The extracts were filtered with Teflon membrane dimensions 0.45 μm by 13 mm (Millex®-LCR); 20 μL of each filtered sample was injected into the HPLC equipment. The measurements were performed in a (Waters corporation, Milford, CT, USA) 2695 HPLC with a diode array detector (Waters 2996) and processed with the Empower Pro 1.0 software. A Chromolith Performance® RP-18e 100 × 4.6 mm (Merck KGaA, Darmstadt, Germany) was used. The mobile phase consisted of a mixture of acetonitrile and water with the proportion 55:45 and a flow rate of 1 mL/min. The concentrations of the flavonoids and the biotransformation products were obtained by comparison with a pre-built calibration curve at λ = 220 nm.
(§2) To evaluate the suitability of the assay for the pharmacokinetic studies, 200 mg/kg of the active fraction was orally administered to the animals. Ten animals were used in each group at different times (0, 5, 10, 15, 30, 60, 120, 240, 480, 720, and 1440 min). Pharmacokinetic calculations were performed using the observed data. All data was subsequently processed using the PKSolver add-in program for Microsoft Excel written in Visual Basic for Applications. All values obtained were expressed in mean ± standard deviation.

[2] = Stability of flavonoids and biotransformation products in mouse plasma under different handling conditions; type: in vitro ADME, mice; details: for Accuracy Bias 0 h / Observed Conc. 0 h / Accuracy Bias 8 h / Observed Conc. 8 h / Accuracy Bias 24 h / Observed Conc. 24 h: room temperature (25 °C); for Observed Conc. 0 h / Observed Conc. 8 h / Observed Conc. 24 h / Observed Conc. Autosampler (4 °C; 8 h) / Observed Conc. Long-term (−70 °C; 1 month): n = 6; for Accuracy Bias Autosampler (4 °C; 8 h) / Accuracy Bias Long-term (−70°C; 1 month) / Observed Conc. Autosampler (4 °C; 8 h) / Observed Conc. Long-term (−70 °C; 1 month): storage stability
Protocol: as §1
[…] The investigation enclosed here expected manipulation conditions during all the sample storage and process periods, which included the stability data from the freeze/thaw, bench-top, autosampler, and long–term stability tests.
For all stability studies, fresh QC samples were evaluated by using a freshly prepared standard curve for the measurements. The concentrations obtained from all the stability studies were compared with the fresh QC samples, and the percentage concentration deviation was calculated. The analytes were considered stable in the mouse plasma when the concentration difference between the freshly prepared samples and the stability samples was less than 15%.

[3] = Pharmacokinetic analysis, two-compartment model (PKSolver); type: in vivo, ICR mice
Protocol: The data shown in Table 2 were applied to the program PKSolver. After a single oral administration of 200 mg/kg of the anxiolitic fraction of T. americana, the behavior of the concentration-time data allowed us to determine the main pharmacokinetic parameters under a two-compartment model (Table 3), and the same program provided the graphical behavior of the variables and the adjustment to the two-compartment model.
as §2
For the pharmacokinetic assay, the selection was made either from a one-compartment or a two-compartment model, with the use of both the Akaike information criterion (AIC) and the Schwarz criterion (SC). Using these two criteria, one can select which model is more suited to being adjusted, to the point where it reaches the lowest values of the AIC or SC criteria, which means that the chosen model is more parsimonious (less parameters required) and best fits the data (low error prediction).

[4] = high nominal conc. (7.00; 44.37; 4.50; 31.25 µg/mL)
[5] = low nominal conc. (1.75; 11.02; 1.12; 1.95 µg/mL)
[6] = medium nominal conc. (3.50; 22.18; 2.24; 7.81 µg/mL)
[7] = mouse, oral 200 mg/kg anxiolytic fraction, ICR mice plasma, two-compartment model
[8] = oral 200 mg/kg anxiolytic fraction, ICR mice plasma, two-compartment model
[9] = oral 200 mg/kg anxiolytic fraction, ICR mice plasma, two-compartment model, n = 10

O=C(O)Cc1ccc(O)c(O)c1 [DOPAC, 3,4-dihydroxyphenylacetic acid]
concentration at 5 min ([1]; 5 min after single oral dose of 200 mg/kg of the anxiolytic fraction, ND = not detected): 6600 ± 430 ng/mL
concentration at 10 min ([1]; 10 min after single oral dose of 200 mg/kg of the anxiolytic fraction): 6430 ± 350 ng/mL
concentration at 15 min ([1]; 15 min after single oral dose of 200 mg/kg of the anxiolytic fraction): 7730 ± 610 ng/mL
concentration at 30 min ([1]; 30 min after single oral dose of 200 mg/kg of the anxiolytic fraction): 7170 ± 520 ng/mL
concentration at 60 min ([1]; 60 min after single oral dose of 200 mg/kg of the anxiolytic fraction): 6880 ± 430 ng/mL
concentration at 120 min ([1]; 120 min after single oral dose of 200 mg/kg of the anxiolytic fraction): 6340 ± 410 ng/mL
concentration at 240 min ([1]; 240 min after single oral dose of 200 mg/kg of the anxiolytic fraction): 6260 ± 320 ng/mL
concentration at 480 min ([1]; 480 min after single oral dose of 200 mg/kg of the anxiolytic fraction): 6100 ± 340 ng/mL
concentration at 720 min ([1]; 720 min after single oral dose of 200 mg/kg of the anxiolytic fraction): 6010 ± 540 ng/mL
concentration at 1440 min ([1]; 1440 min after single oral dose of 200 mg/kg of the anxiolytic fraction): 5930 ± 490 ng/mL
Accuracy Bias 0 h ([2]; high nominal conc.): 0.26%
Observed Conc. 0 h ([2]; high nominal conc. (rutin 7.00; quercetin glucoside, quercitrin, tiliroside 44.37; kaempferol 4.50; m-HPAA, p-HPAA, DOPAC 31.25 µg/mL)): 31.61 ± 0.26 µg/mL
Accuracy Bias 0 h ([2]; low nominal conc.): 0.02%
Observed Conc. 0 h ([2]; low nominal conc. (rutin 1.75; quercetin glucoside, quercitrin, tiliroside 11.02; kaempferol 1.12; m-HPAA, p-HPAA, DOPAC 1.95 µg/mL)): 1.98 ± 0.020 µg/mL
Accuracy Bias 0 h ([2]; medium nominal conc.): 0.03%
Observed Conc. 0 h ([2]; medium nominal conc. (rutin 3.50; quercetin glucoside, quercitrin, tiliroside 22.18; kaempferol 2.24; m-HPAA, p-HPAA, DOPAC 7.81 µg/mL)): 7.85 ± 0.032 µg/mL
Accuracy Bias 8 h ([2]; high nominal conc.): 0.25%
Observed Conc. 8 h [2, 4]: 31.64 ± 0.24 µg/mL
Accuracy Bias 8 h ([2]; low nominal conc.): 0.03%
Observed Conc. 8 h [2, 5]: 1.92 ± 0.02 µg/mL
Accuracy Bias 8 h ([2]; medium nominal conc.): 0.03%
Observed Conc. 8 h [2, 6]: 7.86 ± 0.03 µg/mL
Accuracy Bias 24 h ([2]; high nominal conc.): 0.19%
Observed Conc. 24 h [2, 4]: 31.53 ± 0.19 µg/mL
Accuracy Bias 24 h ([2]; low nominal conc.): 0.03%
Observed Conc. 24 h [2, 5]: 1.91 ± 0.03 µg/mL
Accuracy Bias 24 h ([2]; medium nominal conc.): 0.02%
Observed Conc. 24 h [2, 6]: 7.78 ± 0.02 µg/mL
Accuracy Bias Autosampler (4 °C; 8 h) ([2]; high nominal conc.): 2.23%
Accuracy Bias Long-term (−70°C; 1 month) ([2]; high nominal conc.): 2.11%
Observed Conc. Autosampler (4 °C; 8 h) [2, 4]: 31.61 ± 0.19 µg/mL
Observed Conc. Long-term (−70 °C; 1 month) [2, 4]: 31.53 ± 0.25 µg/mL
Accuracy Bias Autosampler (4 °C; 8 h) ([2]; low nominal conc.): 0.88%
Accuracy Bias Long-term (−70°C; 1 month) ([2]; low nominal conc.): 1.15%
Observed Conc. Autosampler (4 °C; 8 h) [2, 5]: 1.91 ± 0.03 µg/mL
Observed Conc. Long-term (−70 °C; 1 month) [2, 5]: 1.99 ± 0.03 µg/mL
Accuracy Bias Autosampler (4 °C; 8 h) ([2]; medium nominal conc.): 0.38%
Accuracy Bias Long-term (−70°C; 1 month) ([2]; medium nominal conc.): 0.58%
Observed Conc. Autosampler (4 °C; 8 h) [2, 6]: 7.78 ± 0.02 µg/mL
Observed Conc. Long-term (−70 °C; 1 month) [2, 6]: 7.85 ± 0.03 µg/mL
CL/F, times lower than m-HPAA ([3]; after oral administration): 30 times
CL/F, times lower than p-HPAA ([3]; after oral administration): 20 times
AUC(0-inf) [3, 7]: 3850 µg·h/mL
Cmax [3, 7]: 7180 ng/mL
Tmax [3, 7]: 12.9 min
AUC(0-t) ([3]; mouse, oral 200 mg/kg anxiolytic fraction, ICR mice plasma, two-compartment model, read-out: AUC0→1440 (converted)): 146 µg·h/mL
MRT ([3]; mouse, oral 200 mg/kg anxiolytic fraction, ICR mice plasma, two-compartment model, read-out: MRT (mean residence time) (converted)): 26.1 days
k el ([3]; mouse, oral 200 mg/kg anxiolytic fraction, ICR mice plasma, two-compartment model, read-out: k10 (apparent first-order elimination rate constant from the central compartment) (converted)): 5.3e-07 s⁻¹
half-life ([3]; mouse, oral 200 mg/kg anxiolytic fraction, ICR mice plasma, two-compartment model, read-out: t1/2β): 18.1 days
CL/F (apparent clearance) [3, 8]: 0.0008 (mg/Kg)/(μg/mL)/min
V/F (apparent volume of distribution) [3, 8]: 27.21 (mg/Kg)/(µg/mL)
k12 (transfer rate constant central to peripheral compartment) [3, 8]: 0.002 min⁻¹
k21 (transfer rate constant peripheral to central compartment) [3, 8]: 0.0096 min⁻¹
ka (apparent first-order absorption rate constant) [3, 8]: 0.43 min⁻¹
t1/2ka (absorption half time) [3, 8]: 1.61 min
t1/2α [3, 8]: 59.95 min
α [3, 8]: 0.01 min⁻¹
β [3, 8]: 2.66e-05 min⁻¹
A (plasma concentration coefficient, central compartment) [3, 9]: 1.23 µg/mL
B (plasma concentration coefficient, peripheral compartment) [3, 9]: 6.16 µg/mL
index: relation between rate constants of k12 with respect to k21 ([3]; two-compartment model): 0.20
